Measurements as given in ChEMBL document CHEMBL1135750, “Phenoxyphenyl sulfone N-formylhydroxylamines (retrohydroxamates) as potent, selective, orally bioavailable matrix metalloproteinase inhibitors” (J Med Chem, 2002).

Legend:
Matrilysin = molecular target: T1, Matrilysin (Homo sapiens, UniProt P09237); experiment: Inhibition of Matrix metalloprotease-7 (MMP-7) in fluorimetric assay
T1 sequence (P09237 whole entry): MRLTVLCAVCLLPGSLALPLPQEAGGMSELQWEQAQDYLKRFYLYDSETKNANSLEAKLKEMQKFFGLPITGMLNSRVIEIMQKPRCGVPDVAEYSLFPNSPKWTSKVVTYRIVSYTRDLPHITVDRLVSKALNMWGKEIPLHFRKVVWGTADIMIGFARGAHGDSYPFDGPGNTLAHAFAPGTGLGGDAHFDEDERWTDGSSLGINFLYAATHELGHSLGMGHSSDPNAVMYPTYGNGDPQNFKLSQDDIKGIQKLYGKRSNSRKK

Neutrophil collagenase = Neutrophil collagenase (Homo sapiens, UniProt P22894); experiment: Inhibition of Matrix metalloprotease-8 (MMP-8) in fluorimetric assay
Interstitial collagenase = molecular target: T2, Interstitial collagenase (Homo sapiens, UniProt P03956); experiment: In vitro selective inhibition against matrix metalloprotease-1 (MMP-1) using a fluorimetric assay
T2 sequence (P03956 whole entry): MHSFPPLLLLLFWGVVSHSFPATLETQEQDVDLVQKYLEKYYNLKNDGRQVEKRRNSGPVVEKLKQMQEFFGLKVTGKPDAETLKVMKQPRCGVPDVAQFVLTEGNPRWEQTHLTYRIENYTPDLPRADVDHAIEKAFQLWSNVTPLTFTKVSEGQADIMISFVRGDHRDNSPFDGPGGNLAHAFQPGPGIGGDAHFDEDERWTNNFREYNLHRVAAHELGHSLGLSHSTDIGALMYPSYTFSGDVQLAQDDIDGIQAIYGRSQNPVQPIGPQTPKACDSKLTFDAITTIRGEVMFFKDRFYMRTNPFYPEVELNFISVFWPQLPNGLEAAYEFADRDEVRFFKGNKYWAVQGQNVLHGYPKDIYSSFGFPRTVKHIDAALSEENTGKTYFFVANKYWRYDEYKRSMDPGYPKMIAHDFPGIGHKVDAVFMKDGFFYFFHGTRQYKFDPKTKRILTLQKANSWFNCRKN

[1] = molecular target: Matrix metalloproteinase-9 (Homo sapiens, UniProt P14780); experiment: In vitro selective inhibition against Matrix metalloprotease-9 (MMP-9) using fluorimetric assay
Stromelysin-1 = Stromelysin-1 (Homo sapiens, UniProt P08254); experiment: Inhibition of Matrix metalloprotease-3 (MMP-3) in fluorimetric assay
Collagenase 3 = Collagenase 3 (Homo sapiens, UniProt P45452)
Description: Inhibition of Matrix metalloprotease-13 (MMP-13) in fluorimetric assay

[2] = molecular target: 72 kDa type IV collagenase (Homo sapiens, UniProt P08253); experiment: In vitro selective inhibition against matrix metalloprotease-2 (MMP-2) using fluorimetric assay
THP-1 = experiment: Selective inhibition of the cellular TNF alpha release from LPS-stimulated THP-1 cells; format: functional, cell-based; settings: Homo sapiens

72 kDa type IV collagenase, sequence (P08253 whole entry): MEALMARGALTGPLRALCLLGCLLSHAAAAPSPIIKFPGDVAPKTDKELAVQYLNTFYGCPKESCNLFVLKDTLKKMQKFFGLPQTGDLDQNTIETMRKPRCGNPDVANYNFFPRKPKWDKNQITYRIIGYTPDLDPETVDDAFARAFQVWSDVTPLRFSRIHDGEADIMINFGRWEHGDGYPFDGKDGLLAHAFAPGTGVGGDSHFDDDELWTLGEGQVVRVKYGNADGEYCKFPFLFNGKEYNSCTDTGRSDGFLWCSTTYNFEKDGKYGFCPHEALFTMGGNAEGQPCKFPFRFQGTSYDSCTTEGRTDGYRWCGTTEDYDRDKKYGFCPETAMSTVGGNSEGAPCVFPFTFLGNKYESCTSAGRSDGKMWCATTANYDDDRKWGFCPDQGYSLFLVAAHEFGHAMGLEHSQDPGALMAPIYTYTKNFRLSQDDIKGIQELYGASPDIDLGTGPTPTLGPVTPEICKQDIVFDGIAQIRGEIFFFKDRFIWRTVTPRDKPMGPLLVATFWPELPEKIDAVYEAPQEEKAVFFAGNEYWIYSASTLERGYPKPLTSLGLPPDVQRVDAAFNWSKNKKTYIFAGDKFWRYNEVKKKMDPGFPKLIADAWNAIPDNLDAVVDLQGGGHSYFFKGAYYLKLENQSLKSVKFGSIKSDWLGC
Neutrophil collagenase, sequence (P22894 whole entry): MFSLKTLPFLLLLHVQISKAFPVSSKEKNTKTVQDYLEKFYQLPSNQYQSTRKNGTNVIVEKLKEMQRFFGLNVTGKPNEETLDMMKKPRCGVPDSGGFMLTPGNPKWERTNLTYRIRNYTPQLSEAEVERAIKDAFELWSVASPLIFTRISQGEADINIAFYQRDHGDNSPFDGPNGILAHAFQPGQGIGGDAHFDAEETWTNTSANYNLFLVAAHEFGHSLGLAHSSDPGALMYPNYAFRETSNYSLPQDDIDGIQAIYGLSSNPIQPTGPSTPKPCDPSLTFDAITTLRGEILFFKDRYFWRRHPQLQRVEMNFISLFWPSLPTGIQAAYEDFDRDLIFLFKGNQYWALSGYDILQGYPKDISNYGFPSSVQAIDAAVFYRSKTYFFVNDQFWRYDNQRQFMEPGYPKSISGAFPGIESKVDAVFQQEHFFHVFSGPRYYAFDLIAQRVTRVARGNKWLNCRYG
Stromelysin-1, sequence (P08254 whole entry): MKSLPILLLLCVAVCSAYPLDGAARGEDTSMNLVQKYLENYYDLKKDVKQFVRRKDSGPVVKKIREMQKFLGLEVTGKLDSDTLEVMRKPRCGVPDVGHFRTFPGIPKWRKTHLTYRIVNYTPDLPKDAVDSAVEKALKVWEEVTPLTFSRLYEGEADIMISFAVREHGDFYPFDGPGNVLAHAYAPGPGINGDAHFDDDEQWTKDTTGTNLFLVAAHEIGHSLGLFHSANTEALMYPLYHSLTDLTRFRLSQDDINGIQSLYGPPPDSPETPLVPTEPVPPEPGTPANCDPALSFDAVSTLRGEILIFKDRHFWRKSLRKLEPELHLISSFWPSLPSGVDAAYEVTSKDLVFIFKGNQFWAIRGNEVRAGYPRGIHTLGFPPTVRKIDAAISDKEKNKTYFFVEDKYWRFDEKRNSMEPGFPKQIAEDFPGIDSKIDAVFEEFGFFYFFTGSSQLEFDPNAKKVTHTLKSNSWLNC
Matrix metalloproteinase-9, sequence (P14780 whole entry): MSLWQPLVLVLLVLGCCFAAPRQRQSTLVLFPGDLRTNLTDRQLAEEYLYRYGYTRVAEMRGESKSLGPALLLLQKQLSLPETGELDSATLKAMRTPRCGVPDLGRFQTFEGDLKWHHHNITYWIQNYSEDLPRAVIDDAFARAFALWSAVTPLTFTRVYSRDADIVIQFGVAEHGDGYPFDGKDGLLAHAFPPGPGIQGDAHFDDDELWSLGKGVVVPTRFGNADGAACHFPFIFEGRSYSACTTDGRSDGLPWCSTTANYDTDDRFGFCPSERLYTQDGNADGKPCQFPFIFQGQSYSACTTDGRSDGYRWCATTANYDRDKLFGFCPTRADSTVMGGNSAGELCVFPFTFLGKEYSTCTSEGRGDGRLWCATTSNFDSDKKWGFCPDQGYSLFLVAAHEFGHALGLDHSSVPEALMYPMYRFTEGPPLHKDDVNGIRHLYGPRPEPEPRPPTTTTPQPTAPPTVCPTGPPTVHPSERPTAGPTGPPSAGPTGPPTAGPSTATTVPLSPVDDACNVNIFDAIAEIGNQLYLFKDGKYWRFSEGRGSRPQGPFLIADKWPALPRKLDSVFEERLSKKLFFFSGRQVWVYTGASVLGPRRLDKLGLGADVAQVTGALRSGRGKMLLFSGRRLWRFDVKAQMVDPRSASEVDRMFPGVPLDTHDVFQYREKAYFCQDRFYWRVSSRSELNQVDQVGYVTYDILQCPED

CC1(C)OC[C@H]([C@@H](CS(=O)(=O)c2ccc(Oc3ccc(OC(F)(F)F)cc3)cc2)N(O)C=O)O1 (stereo in doubt)
IC50 (Matrilysin): 11 µM | IC50 (Neutrophil collagenase): 5 nM | IC50 (Interstitial collagenase): 8.9 µM | IC50 [1]: 0.5 nM | IC50 (Stromelysin-1): 12 nM | IC50 (Collagenase 3): 3.3 nM | IC50 [2]: 0.78 nM | IC50 (THP-1): > 50 µM
